Source: ChEMBL document CHEMBL1201862, “PubChem BioAssay data set” (2004)
The source made the active and inactive calls.

Experiments:
[1] = biological target: T1, Rac GTPase-activating protein 1 (Homo sapiens, UniProt Q9H0H5); test: blockers of MgcRacGAP-driven Rac1 GTP hydrolysis – biochemical, ADP Hunter fluorescence, primary and confirmatory, confirmation (AID 624330); type: functional
T1 sequence (Q9H0H5 whole entry): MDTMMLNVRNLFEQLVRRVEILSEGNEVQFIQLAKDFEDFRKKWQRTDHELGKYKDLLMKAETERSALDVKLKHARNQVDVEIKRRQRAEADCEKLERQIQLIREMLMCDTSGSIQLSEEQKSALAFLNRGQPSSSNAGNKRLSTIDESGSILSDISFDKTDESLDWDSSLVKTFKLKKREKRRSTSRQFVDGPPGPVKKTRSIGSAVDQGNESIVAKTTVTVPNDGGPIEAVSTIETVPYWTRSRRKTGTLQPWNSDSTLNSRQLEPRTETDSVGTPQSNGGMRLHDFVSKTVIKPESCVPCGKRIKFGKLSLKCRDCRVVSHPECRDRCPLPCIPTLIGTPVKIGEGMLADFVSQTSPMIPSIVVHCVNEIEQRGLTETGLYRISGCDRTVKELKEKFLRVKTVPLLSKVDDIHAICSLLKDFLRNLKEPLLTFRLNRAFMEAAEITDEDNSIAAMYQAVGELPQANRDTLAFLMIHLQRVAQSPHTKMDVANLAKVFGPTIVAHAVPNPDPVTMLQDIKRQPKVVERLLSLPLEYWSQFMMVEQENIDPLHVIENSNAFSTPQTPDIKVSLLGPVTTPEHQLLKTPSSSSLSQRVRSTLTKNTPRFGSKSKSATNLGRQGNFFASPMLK

Fatty acid synthase [2] = biological target: T2, Fatty acid synthase (Homo sapiens, UniProt P49327); test: inhibition of human FAS-TE enzyme activity – biochemical, kinetic fluorescence intensity, dose response (AID 624326); type: functional;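 also: rate of fluorescence rise from hydrolysis of a fluorogenic O-methyl fluorescein ester substrate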
Fatty acid synthase [3] = biological target: T2, Fatty acid synthase; test: inhibition of human FAS-TE enzyme activity – biochemical, endpoint fluorescence intensity, uHTS hits, dose response (AID 624327); type: functional;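 also: fluorescence from hydrolysis of an O-methyl fluorescein acyl ester substrate by the enzyme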
[4] = Luminescence Cell-Based Dose Response HTS to Identify Activators of Luciferase Translation or Activity in H4 […] Cells. [Related pubchem assays: 1829 (Project Summary), 1814 (Primary HTS)]; type: functional
[5] = Luminescence Cell-Based Dose Confirmation HTS to Identify Activators of 5'UTR Stem-Loop Driven Alpha-Synuclein mRNA Translation in H4 Neuroglioblastoma Cells. [Related pubchem assays: 1829 (Project Summary), 1814 (Primary HTS)]; type: functional
H4 = test: Luminescence Cell-Based Dose Response HTS to Identify Activators of 5'UTR Stem-Loop Driven Prion Protein mRNA Translation in H4 Neuroglioblastoma Cells. [Related pubchem assays: 1829 (Project Summary), 1814 (Primary HTS)]; type: functional; settings: Homo sapiens
[6] = fluconazole-exposed Candida albicans growth modulators – fluorescence, retest, confirmation (AID 2467); type: functional, cell-based
[7] = NIH-3T3 fibroblast cytotoxicity, dose response, cytotoxicity control, cell-based, fluorescence, Alamar Blue, secondary assay (AID 2327); type: functional;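 also: NIH-3T3 mouse fibroblasts cultured with fluconazole at 8 µg/mL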
Protein RecA = biological target: T3, Protein RecA (Mycobacterium tuberculosis, UniProt P9WHJ3); test: Fluorescence Cell-Free Homogeneous Dose Retest to Identify Inhibitors of RecA-Intein Splicing Activity. [Related pubchem assays (depositor defined):AID2097, AID2223, AID489010, AID492950]; type: functional
T3 sequence (P9WHJ3 whole entry): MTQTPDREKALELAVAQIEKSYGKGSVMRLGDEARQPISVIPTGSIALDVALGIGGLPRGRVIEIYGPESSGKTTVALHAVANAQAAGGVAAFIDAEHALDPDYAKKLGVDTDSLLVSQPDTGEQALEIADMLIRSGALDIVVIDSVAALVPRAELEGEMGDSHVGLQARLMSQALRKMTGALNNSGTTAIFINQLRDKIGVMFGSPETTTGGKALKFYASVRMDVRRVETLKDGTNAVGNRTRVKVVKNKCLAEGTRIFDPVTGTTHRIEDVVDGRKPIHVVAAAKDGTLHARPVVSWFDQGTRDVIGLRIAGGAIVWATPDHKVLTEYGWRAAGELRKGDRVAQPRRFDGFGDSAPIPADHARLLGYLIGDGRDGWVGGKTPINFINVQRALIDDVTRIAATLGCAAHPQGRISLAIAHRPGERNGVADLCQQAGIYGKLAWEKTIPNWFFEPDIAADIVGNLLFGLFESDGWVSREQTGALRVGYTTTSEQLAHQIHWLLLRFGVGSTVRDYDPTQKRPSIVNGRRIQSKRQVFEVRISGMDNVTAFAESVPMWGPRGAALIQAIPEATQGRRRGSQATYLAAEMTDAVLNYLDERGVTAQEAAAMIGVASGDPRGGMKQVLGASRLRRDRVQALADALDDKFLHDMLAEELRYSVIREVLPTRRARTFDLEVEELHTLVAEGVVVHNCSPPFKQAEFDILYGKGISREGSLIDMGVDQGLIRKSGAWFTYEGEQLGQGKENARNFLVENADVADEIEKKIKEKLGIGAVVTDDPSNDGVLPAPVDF

[8] = biological target: T4, Replicative DNA helicase DnaB (Mycobacterium tuberculosis, UniProt P9WMR3); test: DnaB intein splicing inhibitors, dose response, biochemical, cell-free fluorescence (AID 449749); type: functional
T4 sequence (P9WMR3 whole entry): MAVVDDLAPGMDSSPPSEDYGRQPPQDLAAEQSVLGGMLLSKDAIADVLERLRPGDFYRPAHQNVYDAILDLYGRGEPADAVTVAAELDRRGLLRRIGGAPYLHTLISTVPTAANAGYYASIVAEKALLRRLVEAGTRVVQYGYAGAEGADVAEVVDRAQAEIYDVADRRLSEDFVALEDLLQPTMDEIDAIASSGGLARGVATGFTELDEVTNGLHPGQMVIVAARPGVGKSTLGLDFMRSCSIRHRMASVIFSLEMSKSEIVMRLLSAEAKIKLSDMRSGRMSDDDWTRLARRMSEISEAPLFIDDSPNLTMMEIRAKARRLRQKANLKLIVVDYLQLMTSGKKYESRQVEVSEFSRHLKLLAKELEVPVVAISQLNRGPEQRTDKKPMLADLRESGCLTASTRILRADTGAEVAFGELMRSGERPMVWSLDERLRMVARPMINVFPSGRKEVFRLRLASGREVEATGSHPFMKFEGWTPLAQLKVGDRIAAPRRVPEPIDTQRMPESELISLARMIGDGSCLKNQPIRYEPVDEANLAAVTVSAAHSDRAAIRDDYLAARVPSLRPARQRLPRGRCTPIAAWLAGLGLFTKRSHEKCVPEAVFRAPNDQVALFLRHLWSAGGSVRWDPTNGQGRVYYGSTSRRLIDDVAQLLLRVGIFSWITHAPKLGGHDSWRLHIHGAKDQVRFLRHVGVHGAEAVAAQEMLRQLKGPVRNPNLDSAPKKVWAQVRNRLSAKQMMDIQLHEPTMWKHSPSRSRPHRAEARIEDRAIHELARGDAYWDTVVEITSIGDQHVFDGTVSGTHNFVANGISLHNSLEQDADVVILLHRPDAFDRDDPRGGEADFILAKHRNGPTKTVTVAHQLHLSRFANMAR

T2 sequence (P49327 whole entry): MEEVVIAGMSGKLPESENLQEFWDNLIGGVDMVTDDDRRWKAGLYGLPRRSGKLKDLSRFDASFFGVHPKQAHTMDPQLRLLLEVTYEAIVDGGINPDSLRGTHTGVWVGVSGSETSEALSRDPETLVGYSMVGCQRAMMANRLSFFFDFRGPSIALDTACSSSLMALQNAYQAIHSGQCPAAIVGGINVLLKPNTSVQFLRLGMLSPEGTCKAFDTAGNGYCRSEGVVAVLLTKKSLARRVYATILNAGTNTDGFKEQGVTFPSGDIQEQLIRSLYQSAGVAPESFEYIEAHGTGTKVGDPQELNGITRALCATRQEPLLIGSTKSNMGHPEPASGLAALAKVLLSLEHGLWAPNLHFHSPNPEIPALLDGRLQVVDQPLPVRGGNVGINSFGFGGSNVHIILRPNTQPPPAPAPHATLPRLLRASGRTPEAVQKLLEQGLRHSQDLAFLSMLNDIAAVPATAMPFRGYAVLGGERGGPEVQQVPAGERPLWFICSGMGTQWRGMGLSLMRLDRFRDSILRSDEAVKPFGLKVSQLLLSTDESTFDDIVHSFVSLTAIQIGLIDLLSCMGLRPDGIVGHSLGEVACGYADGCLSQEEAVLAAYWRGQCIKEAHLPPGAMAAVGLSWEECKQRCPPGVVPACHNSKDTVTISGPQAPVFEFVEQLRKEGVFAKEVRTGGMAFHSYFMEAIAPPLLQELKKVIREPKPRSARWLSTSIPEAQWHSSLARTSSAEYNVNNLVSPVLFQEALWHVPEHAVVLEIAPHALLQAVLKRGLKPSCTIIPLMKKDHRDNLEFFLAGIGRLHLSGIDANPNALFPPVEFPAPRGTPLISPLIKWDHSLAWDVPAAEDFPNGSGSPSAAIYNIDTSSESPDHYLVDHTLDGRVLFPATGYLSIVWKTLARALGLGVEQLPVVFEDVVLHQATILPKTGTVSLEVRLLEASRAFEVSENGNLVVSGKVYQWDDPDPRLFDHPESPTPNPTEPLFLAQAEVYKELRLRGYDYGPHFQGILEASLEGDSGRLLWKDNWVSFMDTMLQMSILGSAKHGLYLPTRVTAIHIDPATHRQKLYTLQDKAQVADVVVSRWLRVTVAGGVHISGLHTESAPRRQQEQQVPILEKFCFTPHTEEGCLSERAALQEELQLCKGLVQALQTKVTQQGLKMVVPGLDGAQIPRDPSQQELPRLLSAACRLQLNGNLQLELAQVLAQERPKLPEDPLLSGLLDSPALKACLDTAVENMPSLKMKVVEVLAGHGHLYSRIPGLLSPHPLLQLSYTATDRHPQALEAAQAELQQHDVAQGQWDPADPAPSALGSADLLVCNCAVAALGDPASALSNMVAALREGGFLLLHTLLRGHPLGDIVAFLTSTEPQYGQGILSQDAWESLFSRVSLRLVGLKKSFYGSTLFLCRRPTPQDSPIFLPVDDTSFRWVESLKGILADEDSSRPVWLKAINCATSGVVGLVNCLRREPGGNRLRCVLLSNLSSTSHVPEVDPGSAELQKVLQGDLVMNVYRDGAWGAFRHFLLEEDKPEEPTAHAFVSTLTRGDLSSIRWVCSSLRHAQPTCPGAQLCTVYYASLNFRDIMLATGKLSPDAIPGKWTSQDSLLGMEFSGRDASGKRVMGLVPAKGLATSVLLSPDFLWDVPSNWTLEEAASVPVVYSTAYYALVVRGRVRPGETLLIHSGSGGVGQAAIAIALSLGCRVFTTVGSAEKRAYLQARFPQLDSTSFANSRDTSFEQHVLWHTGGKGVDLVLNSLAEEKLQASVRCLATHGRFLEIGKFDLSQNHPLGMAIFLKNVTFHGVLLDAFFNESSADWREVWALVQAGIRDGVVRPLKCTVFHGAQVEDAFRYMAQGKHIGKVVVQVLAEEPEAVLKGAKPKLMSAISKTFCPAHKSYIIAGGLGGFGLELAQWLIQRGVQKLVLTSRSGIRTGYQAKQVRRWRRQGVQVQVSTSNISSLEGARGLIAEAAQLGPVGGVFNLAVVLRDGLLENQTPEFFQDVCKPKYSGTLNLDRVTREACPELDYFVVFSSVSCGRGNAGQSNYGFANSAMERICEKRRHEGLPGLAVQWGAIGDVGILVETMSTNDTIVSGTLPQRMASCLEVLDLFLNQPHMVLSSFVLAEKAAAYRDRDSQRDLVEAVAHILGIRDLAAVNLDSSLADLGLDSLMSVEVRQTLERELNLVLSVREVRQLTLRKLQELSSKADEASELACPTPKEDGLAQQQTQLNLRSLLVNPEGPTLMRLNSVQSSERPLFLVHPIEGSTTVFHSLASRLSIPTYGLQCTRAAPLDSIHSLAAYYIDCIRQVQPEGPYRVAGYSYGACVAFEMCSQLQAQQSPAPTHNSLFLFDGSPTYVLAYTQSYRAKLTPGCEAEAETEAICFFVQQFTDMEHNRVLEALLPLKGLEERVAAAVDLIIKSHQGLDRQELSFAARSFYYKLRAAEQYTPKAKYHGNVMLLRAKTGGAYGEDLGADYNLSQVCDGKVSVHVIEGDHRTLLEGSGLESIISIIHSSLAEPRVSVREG

## O=C(CN1CCN(c2ccc(O)cc2)CC1)Nc1ccc2c(c1)OCCCO2
[1]
  IC50: 49.7 µM (active)

## Cc1c(Br)c([N+](=O)[O-])nn1CC(=O)Nc1ccc(C(C)C)cc1
Fatty acid synthase [2]
  IC50: 6.92 µM (active)
Fatty acid synthase [3]
  IC50: 3.18 µM (active)

## O=c1c2ccccc2cnn1CCOc1cccc(Br)c1
[4]
  EC50: 33.9 µM (active)
[5]
  EC50: 27.5 µM (active)
H4
  EC50: 6.06 µM (active)

## COc1ccc(NC(=O)CN(c2ccc([N+](=O)[O-])cc2)S(=O)(=O)c2ccccc2)c(OC)c1
Fatty acid synthase [2]
  IC50: 5.78 µM (active)
Fatty acid synthase [3]
  IC50: 4.43 µM (active)

## COc1ccc(-c2ccc(=O)n(CC(=O)Nc3cccc(O)c3)n2)cc1OC
[6]
  EC50: > 38 µM (not active)
[7]
  EC50: > 150 µM (inconclusive)

## Cc1cc(O)ccc1Nc1nc(-c2cccnc2)cs1
[4]
  EC50: 0.389 µM (active)
[5]
  EC50: 7.92 µM (active)
H4
  EC50: 6.4 µM (active)

## Cc1cc(C)nc(SC2=CS(=O)(=O)c3ccccc32)n1
[5]
  EC50: 12.1 µM (active)
H4
  EC50: > 120 µM (not active)

## O=C(Nc1ccc(Cc2ccncc2)cc1)c1ccc(Cl)c([N+](=O)[O-])c1
Fatty acid synthase [2]
  IC50: 10.9 µM (active)
Fatty acid synthase [3]
  IC50: 10.2 µM (active)

## O=C(CN1CCCCC1)Nc1scc2c1c(=O)oc1ccccc12
[4]
  EC50: 16.1 µM (active)
[5]
  EC50: > 120 µM (not active)
H4
  EC50: 59.7 µM (active)

## COc1ccc2c(c1)C(=C(C#N)C#N)C(=O)N2CCc1ccccc1
Protein RecA
  EC50: 21.2 µM (active)
[8]
  AC50: 3.97 µM (active)

## CCN1CCN(CCCOc2ccccc2-c2ccccc2)CC1
[1]
  IC50: 96.9 µM (active)

## O=[N+]([O-])c1ccc(SNc2ccccc2)c([N+](=O)[O-])c1
Fatty acid synthase [2]
  IC50: 9.38 µM (active)
Fatty acid synthase [3]
  IC50: 10.4 µM (active)

## O=C(N/N=C/c1coc2ccc(Cl)cc2c1=O)c1ccc(O)cc1
Fatty acid synthase [2]
  IC50: 4.84 µM (active)
Fatty acid synthase [3]
  IC50: 6.64 µM (active)
Protein RecA
  EC50: 16.1 µM (active)
[8]
  AC50: > 380 µM (inactive)

## COc1cc(/C=N/NC(=O)c2cc[n+]([O-])cc2)ccc1O
[1]
  IC50: 32.7 µM (active)

## CCn1c(-c2ccccc2)cs/c1=N\c1ccc(O)cc1
[1]
  IC50: 31.7 µM (active)

## C/C(CC(=O)Nc1ccccc1[N+](=O)[O-])=N\NC(=O)COc1ccccc1C
Protein RecA
  EC50: 3.85 µM (active)
[8]
  AC50: 10.5 µM (active)

## CN1CCN(/N=C/c2nc(-c3ccc(Cl)cc3)n3ccccc23)CC1
[1]
  IC50: 27.1 µM (active)

## Cc1ccc(NC(=O)CSc2nnc([C@@H](N)Cc3c[nH]c4ccccc34)o2)c(C)c1
[6]
  EC50: > 38 µM (not active)
[7]
  EC50: > 150 µM (inactive)
